The values below come from patent publication US6534278B1, “Screening for antibiotics” (priority 1997, dated 2003).

≈ marks a conversion by molar mass, not a printed value. Where a SMILES comes first, the peptide text is derived from it. Bridges are numbered along the chain shown (N, C = ends). [ ]: non-standard residue; d: D form. The star is where a group is joined. Ileψ(thiazoline)Cys = CC[C@H](C)[C@H](N)C1=N[C@H](C(=O)*)CS1; dOrn = NCCC[C@@H](N)C(=O)O; Dab = NCC[C@H](N)C(=O)O

Assay [1] has as its system E. coli strain D22 carrying plasmid pNU305 (ampC and ampR genes from Citrobacter freundii, envA-). Nature of the assay: β-lactamase induction screen (nitrocefin, OD 490 nm). It counts as cell-based. To be noted: for [Induction] (limit of detection of β-lactamase induction): lowest concentration at which β-lactamase induction begins to increase, average over trials. The procedure: Screening Strain: E. coli strain D22 carrying plasmid pNU305 which contains the ampC and ampR genes from Citrobacter freundii, the envA-allele, a colEI origin of replication, and a tetracycline resistance determinant was grown in Luria Broth (LB; 5 g yeast extract, 10 g tryptone, and 10 g sodium chloride per liter of purified water) supplemented with E salts (400 μl E salts per 100 ml LB; the E salts contained-10 g magnesium sulfate heptahydrate, 100 g citric acidmonohydrate, 500 g anhydrous dibasic potassium phosphate, and 175 g of monosodium monoammonium phosphate tetrahydrate per liter of purified water).
Reaction Buffer: Nitrocefin was dissolved in dimethylsulfoxide (DMSO) to a concentration of 25 mg/ml and stored in 1 ml aliquots at −80° C. To prepare a reaction buffer, one of the nitrocefin/DMSO aliquots was added to 50 ml Z buffer with detergents (16.1 g dibasic sodium phosphate heptahydrate, 5.5 g monobasic sodium phosphate monohydrate, 0.75 g potassium chloride, 246 mg magnesium sulfate heptahydrate, 200 mg CTAB, and 100 mg sodium deoxycholate per liter, with the pH adjusted to 7.0) and the mixture was vortexed vigorously. The resulting suspension was filtered through Q5 filter paper (Fisher, Cat. No. 09-790-2e) to remove insoluble material. The filtered reaction buffer was stored at −80° C. until it was needed.
Growth Regimen: A single colony of the E. coli (i.e., a starter colony) was streaked onto an LB plate (with tetracycline) and incubated overnight at 37° C. Cells from the starter colony were then used to inoculate multiple colonies in LB (without tetracycline) to give a cell density no higher than 0.05 OD at 650 nm. The cells were grown at 37° C. under aerating conditions (i.e., shaken at 200 rpm in Erlenmeyer flasks having a volume of at least 10 times that of the culture.
Screening: When the cells had grown to a cell density of 0.25 to 0.8 OD at 650 nm, the culture was diluted to 0.25 OD. 80 μl of the diluted culture was added to each well of a microtiter plate containing 20 μl samples from a simulated natural product library, using an automated liquid dispensing robot from Titrtek (Huntsville, Ala.).
A positive control compound (25 μg/ml fosfomycin) was added to some of the wells and other wells were left untreated, as negative control samples. The samples were incubated on the plate for one hour at 37° C. without shaking.
Assay: 10 μl aliquots were transferred from each well to a second microtiter plate, using a Quadra 96 Model 320 robot (TomTec, Hamden, Conn.). 90 μl of the reaction buffer prepared above was added to each well using a automated liquiddispensing robot (Titrtek, Huntsville, Ala.). The OD of the samples was immediately read at […] in a plate reader (Biorad, Model 3550) to obtain zero point β-lactamase levels. The OD was measured again after incubating the plates at room temperature for 90 minutes (room temperature near 30° C.) or 120 minutes (room temperature below 30° C.).
Data Analysis: An induction value, I, was determined for each sample according to the following formula: I=(OD of sample—median OD)/(OD of induced cells—median OD); where the median OD was determined for each plate and the OD of induced cells was defined as the average of the readings from the control wells exposed to the 25 μg/ml fosfomycin. […] Any sample having I≧0.2 was considered to be positive. Since the assay is calorimetric, the zero-point levels were subtracted from the OD readings.
The same mixtures were also screened for increased β-lactamase using the new methods. The β-lactamase produced was plotted against the logarithm of ramoplanin concentration. FIGS. 3A and 3B show two examples of such. plots. As shown by the leftmost 6 and 7 solid black circles in FIGS. 3A and 3B, respectively, these plots show no effect of low concentrations of added ramoplanin on β-lactamase induction, up to a ramoplanin concentration of about 0.8 to 1.6 μg/ml. At this level, the β-lactamase induction level began to increase. […]

The subject of assay [2] is envA-cells containing the pNU305 plasmid. Nature of the assay: microbe, parasite or virus in culture. The procedure: The optical density (OD) of each reaction mixture was measured at 655 nm. The lowest concentration of ramoplanin for which the OD reading was zero was taken to be the MIC.
The mark [3] stands for this setting: lowest concentration with OD 655 nm of zero, 5×10^5 cells/ml, 18 hours, 37° C.

Regarding `CC[C@H](C)[C@H](N)C1=N[C@H](C(=O)N[C@@H](CC(C)C)C(=O)N[C@H](CCC(=O)O)C(=O)N[C@H](C(=O)N[C@H]2CCCCNC(=O)[C@H](CC(N)=O)NC(=O)[C@@H](CC(=O)O)NC(=O)[C@H](Cc3cnc[nH]3)NC(=O)[C@@H](Cc3ccccc3)NC(=O)[C@H]([C@@H](C)CC)NC(=O)[C@@H](CCCN)NC2=O)[C@@H](C)CC)CS1` [Bacitracin] ({Ileψ(thiazoline)Cys}-L[dE]IK[dOrn]I[dF]H[dD]N; lactam 4-C), in assay [1], the “[Induction] (limit of detection of β-lactamase induction)” value came out at 1.6 µg/mL. Also, in assay [2] (setting [3]), the MIC came to 12.5 µg/mL (≈ 8.79 µM).

`CO[C@@]1(NC(=O)Cc2cccs2)C(=O)N2C(C(=O)O)=C(COC(N)=O)CS[C@@H]21` [Cefoxitin]: the “[Induction] (limit of detection of β-lactamase induction)” value in assay [1] came out at 2.5 µg/mL. In assay [2] (Escherichia coli, 18 h), this molecule returned an MIC of 7 µg/mL (≈ 16.4 µM).

As for `O=C(O)c1cn(C2CC2)c2cc(N3CCNCC3)c(F)cc2c1=O` [Ciprofloxacin], in assay [1], the “[Induction] (limit of detection of β-lactamase induction)” value was “none”. For the same molecule, the MIC in assay [2] (Escherichia coli, 18 h) was determined as 0.01 µg/mL (≈ 0.0302 µM).

Consider `N[C@@H]1CON=C1O` [Cycloserine], for which, in assay [1], the “[Induction] (limit of detection of β-lactamase induction)” value came to 20 µg/mL. Besides, the MIC in assay [2] (Escherichia coli, 18 h) is 12.5 µg/mL (≈ 122 µM).

For `CC[C@H]1OC(=O)[C@H](C)[C@@H](O[C@H]2C[C@@](C)(OC)[C@@H](O)[C@H](C)O2)[C@H](C)[C@@H](O[C@@H]2O[C@H](C)C[C@H](N(C)C)[C@H]2O)[C@](C)(O)C[C@@H](C)C(=O)[C@H](C)[C@@H](O)[C@]1(C)O` [Erythromycin], in assay [1], the “[Induction] (limit of detection of β-lactamase induction)” value is on record as “none”. The molecule further yielded an MIC in assay [2] (Escherichia coli, 18 h) of 0.8 µg/mL (≈ 1.09 µM).

With `C[C@@H]1O[C@@H]1P(=O)(O)O` [Fosfomycin], the “[Induction] (limit of detection of β-lactamase induction)” value in assay [1] turned out to be 0.7 µg/mL. For the same molecule, in assay [2] (Escherichia coli, 18 h), the MIC amounted to 0.7 µg/mL (≈ 5.07 µM).

On to `CC[C@@]1([C@@H]2O[C@@H]([C@H]3O[C@@](O)(CO)[C@H](C)C[C@@H]3C)C[C@@H]2C)CC[C@H]([C@]2(C)CC[C@]3(C[C@H](O)[C@@H](C)[C@@H]([C@@H](C)[C@@H](OC)[C@H](C)C(=O)O)O3)O2)O1` [Monensin], for which, in assay [1], the “[Induction] (limit of detection of β-lactamase induction)” value is reported as “none”. This molecule also returned an MIC in assay [2] (Escherichia coli, 18 h) greater than 100 µg/mL.

Take `CC(C)C[C@@H]1NC(=O)[C@@H](Cc2ccccc2)NC(=O)[C@H](CCN)NC(=O)[C@@H](NC(=O)[C@H](CCN)NC(=O)[C@@H](N)[C@@H](C)O)CCNC(=O)[C@H]([C@@H](C)O)NC(=O)[C@H](CCN)NC(=O)[C@H](CCN)NC1=O` [Polymyxin B nonapeptide] (H-T[Dab][Dab][Dab][dF]L[Dab][Dab]T; lactam 3-C; N-terminus assumed): the “[Induction] (limit of detection of β-lactamase induction)” value in assay [1] is 6.3 µg/mL. Further, in assay [2] (setting [3]), the MIC is greater than 100 µg/mL.

The molecule `CO[C@H]1/C=C/O[C@@]2(C)Oc3c(C)c(O)c4c(O)c(c(/C=N/N5CCN(C)CC5)c(O)c4c3C2=O)NC(=O)/C(C)=C\C=C\[C@H](C)[C@H](O)[C@@H](C)[C@@H](O)[C@@H](C)[C@H](OC(C)=O)[C@@H]1C` [Rifampicin] returned an MIC in assay [2] (Escherichia coli, 18 h) of 0.06 µg/mL (≈ 0.0729 µM).

Regarding `CCCCCCCCCCCCOS(=O)(=O)[O-].[Na+]` [Sodium dodecyl sulfate], in assay [1], the “[Induction] (limit of detection of β-lactamase induction)” value was 4 µg/mL. The molecule further gave an MIC in assay [2] (Escherichia coli, 18 h) of 2 µg/mL.

`CN[C@H](CC(C)C)C(=O)N[C@H]1C(=O)N[C@@H](CC(N)=O)C(=O)N[C@H]2C(=O)N[C@H]3C(=O)N[C@H](C(=O)N[C@H](C(=O)O)c4cc(O)cc(O)c4-c4cc3ccc4O)[C@H](O)c3ccc(c(Cl)c3)Oc3cc2cc(c3O[C@@H]2O[C@H](CO)[C@@H](O)[C@H](O)[C@H]2O[C@H]2C[C@](C)(N)[C@H](O)[C@H](C)O2)Oc2ccc(cc2Cl)[C@H]1O` [Vancomycin]: in assay [1], the “[Induction] (limit of detection of β-lactamase induction)” value came to 4 µg/mL. In assay [2] (Escherichia coli, 18 h), this molecule showed an MIC of 10 µg/mL (≈ 6.9 µM).

Consider Moenomycin, for which, in assay [1], the “[Induction] (limit of detection of β-lactamase induction)” value was determined as 1 µg/mL. This molecule registered an MIC in assay [2] (setting [3]) of 2 µg/mL.

Polymyxin B sulfate: the “[Induction] (limit of detection of β-lactamase induction)” value in assay [1] turned out to be 0.2 µg/mL. In addition, the MIC in assay [2] (setting [3]) was determined as 0.4 µg/mL.

Consider Ramoplanin, for which the “detection concentration times less than the minimum inhibitory concentration (MIC / limit of detection)” value in assay [1] (20/1.8) is on record as “about 11 times”. Moreover, the results for the “[Induction] (limit of detection of β-lactamase induction)” value in assay [1] and in assay [1] (listed as ramoplanin) were 1.8 µg/mL and “about 1.8 μg/ml”, respectively. Moreover, the MIC in assay [2] (setting [3]) is 20 µg/mL; in assay [2] (lowest concentration with OD 655 nm of zero, 5×10^5 cells/ml, 18 hours, 37° C., listed as ramoplanin), “about 20 μg/ml”.

As for Triton X-100, the “[Induction] (limit of detection of β-lactamase induction)” value in assay [1] was found to be 100 µg/mL. In assay [2] (setting [3]), this molecule had an MIC of 500 µg/mL.
